Measurements published in patent US4871388A, “Herbicidal liquid concentrate compositions” (priority 1987, dated 1989).

Experiments:
[1] = Solubility of the isomeric mixture at room temperature in various solvents (Table I); assay type: physicochemical
Text: |at Room Temperature in Various Solvents

[2] = Dilution in water of solutions of the ester(s) to normal agricultural tank-mix rates; assay type: physicochemical; details: solvents with >15% solubility; normal agricultural tank-mix rates (1:9-1:99)
[3] = Initial solubility and dissolution in water of 7.5 g of liquid concentrate compositions utilizing 1 molar equivalent of different acids (Table II); details: solvents with greater than 20% by weight solubility; without addition of 0.2 to 1.0 molar equivalent of acids

isomeric mixture of 6-(5-isopropyl-5-methyl-4-oxo-2-imidazolin-2-yl)-m-toluic acid, methyl ester and 2-(5-isopropyl-5-methyl-4-oxo-2-imidazolin-2-yl)-p-toluic acid, methyl ester
limited solubility by weight ([1]; in many of the solvents listed in Table I): ≤ 15% | % Solubility by Weight ([1]; solvent: 1-Formylpiperidine): > 15% | % Solubility by Weight ([1]; solvent: 1-propanol): > 15% | % Solubility by Weight ([1]; solvent: Amyl acetate): 5% | % Solubility by Weight ([1]; solvent: Amyl alcohol (mixed)): > 15% | % Solubility by Weight ([1]; solvent: Anisole): 5% | % Solubility by Weight ([1]; solvent: Aromatic 150): 5% | % Solubility by Weight ([1]; solvent: Chloroform): > 15% | % Solubility by Weight ([1]; solvent: Diethyl succinate): 5% | % Solubility by Weight ([1]; solvent: Dimethyl sulfoxide): > 15% | % Solubility by Weight ([1]; solvent: Dimethylformamide): > 15% | % Solubility by Weight ([1]; solvent: Methanol): > 15% | % Solubility by Weight ([1]; solvent: Methyl cellosolve): > 15% | % Solubility by Weight ([1]; solvent: Methyl oleate): 5% | % Solubility by Weight ([1]; solvent: N-methylpyrrolidone): > 15% | % Solubility by Weight ([1]; solvent: Oleic acid): 5% | % Solubility by Weight ([1]; solvent: Penn Drake Oil (Kerosene)): 5% | % Solubility by Weight ([1]; solvent: Propylene glycol): 5% | % Solubility by Weight ([1]; solvent: Tenneco 500/1000): 5% | % Solubility by Weight ([1]; solvent: Triethanolamine): 5% | % Solubility by Weight ([1]; solvent: Xylene): 5% | precipitate formation on dilution in water [2]: unsprayable precipitates are formed | dissolution characteristics of the resulting concentrate [3]: not satisfactory
